Reference: publication PMC10417336 (Animals : an Open Access Journal from MDPI, 2023)
Values joined by “and” are separate entries in the source; they are usually repeats but may differ in a detail not shown here. Equal values may be shown once. Read-outs that look alike come from different tables or passages of the source.

Key:
[1] = test system: common carp (Cyprinus carpio); conditions: cited from earlier work
[2] = Table 1, source not given; cited from earlier work
[3] = test system: rainbow trout (Oncorhynchus mykiss); conditions: cited from earlier work
Danio rerio = conditions: listed as SDZ; cited from earlier work
[4] = test system: sea cucumbers (Apostichopus japonicus); conditions: cited from earlier work
[5] = test system: lambari (Astyanax bimaculatus); conditions: for T1/2, half-life time: t1/2=ln2/Ke
Protocol: The feed used in the experiment was purchased commercially and contained 45% protein (GuabiTech, Campinas, SP, Brazil). The amount of ^14C SDZ (Sigma-Aldrich; Saint Louis, MO, USA, Hen- 5154X Riedel) used in the experiment was the one that gave the lowest reading signal in the liquid scintillation spectrometer. Thus, the amount of feed per fish was the equivalent of 1% of body weight, 12 mg·day^−1, totaling 3528 mg of feed contaminated with 5540.38 Bq of radioactive product. The feed was homogenized after the application of the ^14C SDZ to ensure that all of the drug was evenly distributed in the feed. For confirmation, seven 50 mg samples of contaminated feed were used for the liquid scintillation spectrometer reading.
The bioaccumulation and depletion study using lambari was conducted to evaluate how the elimination of the SDZ molecule works after treatment. The experiment was performed based on the guidelines of the Organization for Economic Cooperation and Development standard no. 305 [17] and VICH-FDA [18], with adaptations for the use of radiolabeled molecules.
The lambari fingerlings were acquired from a commercial fish farm, without distinction between male and female. A total of 100 healthy fish were placed in a tank with 200 L of (chlorine-free) water. The acclimatization took place over 15 days, during which the fish were fed three times daily with commercial fish food. The water temperature was maintained at 25 °C ± 1 °C and pH 7. Feeding of the fry was stopped 24 h before the experiment.
The tests were divided into two stages, seven days of exposure and seven days of depuration. After the acclimatization process, 84 fish (approximately 5 cm long and weighing approximately 1.0 to 1.4 g) were used in the experiment. The experiment was conducted in 8 L stainless steel tanks with three replicates and two controls, with 14 fish placed in each tank. The water temperature was maintained at 25 °C ± 1 °C, pH 7, under permanent aeration, with a 12 h photoperiod. Water temperature and pH were analyzed daily.
The exposure phase of the fish to the antibiotic lasted 7 consecutive days, during which the medicated feed was offered three times a day. Control fish were fed uncontaminated feed. For the depletion phase, the remaining lambaris were transferred to clean tanks with 4 L of water and fed uncontaminated feed three times a day. It is worth noting that one fish was randomly selected and sampled during the exposure (days 1, 2, 3, 4, 5, 6, and 7) and depletion (8, 9, 10, 11, 12, 13, and 14) periods of each tank; the selected lambari was euthanized with a 0.2 mg.mL^−1 benzocaine immersion bath and frozen for later analysis.
Fish samples were burned in the Oxidizer OX500 (RJ—Harvey Instrument Corporation, Buffalo, NY, USA) in an oxygen-rich atmosphere, where 10 mL of scintillation liquid (permafluor) was used per sample. Measurement was by liquid scintillation counting (LSC) with a Tri-Carb 2910 TR LSA counter (Perkin Elmer, Waltham, MA, USA).
On day 7 (the last day of bioaccumulation) and day 14 (the last day of depletion), the aquarium water was filtered through filter paper (Whatman 42) to collect background material (metabolic excrement). The analyses of the excreta were conducted in the same way as the procedures described for fish. In addition, water samples from each aquarium were sampled in triplicate at the exposure phase (beginning and end) to determine the radiolabeled molecule, using liquid scintillation counters (LSC) with a Tri-Carb 2910 TR LSA counter (Perkin Elmer).

For `Nc1ccc(S(=O)(=O)Nc2ncccn2)cc1` [Sulfadiazine, 4-Amino-N-(2-pyrimidinyl)benzenesulfonamide], the BCF [1] is given as 2.73 to 165.73 L/kg, the “Log P” value [2] is given as −0.09 and the BCF [3] is given as 4100 L/kg. The “concentration of SDZ in the organisms on the seventh day of depletion” value [3] was 1.0 × 10^−4 mg·g ^−1, the “highest accumulation of SDZ in the organisms” value ([3]; day 4, SDZ fed in the diet 0.0330 μg·mg^−1) was 5.10 × 10 ^−4 mg·g^−1 and the “bioaccumulated amount of SDZ” value (Danio rerio) was 4.15 Bq and 5.41 Bq. For the same molecule, the “eliminated amount of SDZ” value (Danio rerio) was 3.79 Bq and 5.21 Bq, the BCF [4] was 2.1 to 891.5 L/kg and the “accumulated SDZ eliminated by the organisms” value ([5]; after two days of the depletion phase (7–9 days)) was 93.12%. The “ke, elimination constant” value ([5]; column Bioaccumulation, model fit) was 0.3956 day⁻¹, the “A, pre-exponential term” value ([5]; column Depletion, model fit) was 186.2 ng/g and the “ku, absorption constant” value ([5]; column Depletion, model fit) was 0.6155 mL/g/day. The “T1/2, half-life time” value ([5]; column Depletion, listed as 14C-sulfadiazine) was 27.02 h, the “T1/2, half-life time” value ([5]; column Depletion, listed as SDZ) was 27.1 h and the “maximum (peak) concentration of SDZ in fish” value ([5]; day 7 of exposure, medicated feed 2.5 mg·g^−1 three times a day, listed as SDZ) was 91.7 ng/g and 91.72 ng/g. For the same molecule, the “concentration of SDZ in fish after depletion phase” value ([5]; day 13, end of experiment) was 0.83 ng/g, the “accumulated 14C-SDZ eliminated by the fish” value ([5]; depletion phase period (7–13 days)) was 93.12% and the “concentration of SDZ in excreta in the depletion period” value ([5]; depletion, abstract) was 5.96 ng/g. For the same molecule, the “concentration of SDZ in fish relative to the MRL” value ([5]; during exposure (bioaccumulation) and elimination (depletion) phases) was < 100 ng/g, the “concentration of SDZ in excreta (sediment), elimination (depletion) phase” value ([5]; elimination 7–13 days) was 5.9e-06 mg/g and the “concentration of SDZ in the water, depletion phase” value ([5]; elimination 7–13 days) was 0.025 ng/mL. The “concentration of SDZ in excreta after the bioaccumulation period” value ([5]; end of exposure phase, abstract) was 363.5 ng/g, the “concentration of SDZ in excreta (sediment), exposure phase (Bioaccumulation)” value ([5]; exposure 1–7 days) was 0.00036 mg/g and the “concentration of SDZ in the water, end of exposure phase (Bioaccumulation)” value ([5]; exposure 1–7 days) was 4.6 ng/mL. The “bioconcentration factor (BCF)” value ([5]; lambari, BCF=Ca/Cw) was 20 L/kg, the “SDZ applied in the diet bioaccumulated in the fish (mass balance)” value ([5]; mass balance) was 0.21% and the “SDZ applied in the diet remaining in the excreta (mass balance)” value ([5]; mass balance) was 0.69%. The “SDZ applied in the diet remaining in the water (mass balance)” value ([5]; mass balance) was 115%.
